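All cell lines were grown in 96-well plates and treated with compound for 48 hours. GI50 marks 50% less growth. TGI is the concentration that stops growth completely.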
System: K-562 leukemia
Assay: growth of human tumour cells (NCI), 48 h

| SMILES | GI50 [nM] | TGI [µM] |
| --- | --- | --- |
| COc1ccc(OC)c2c1[nH]c(=O)c1c3ccccc3cn21 | 692 | 3.12 |
| O=CCC1CCCCC1 | – | > 100 |
| CSc1nc(=O)n(CCC#N)nc1SC | – | 71.1 |
| COc1cc(Nc2ncccc2C(=O)NCc2cn(Cc3cccc(Oc4ccccc4)c3)nn2)cc(OC)c1 | 5050 | > 100 |
| Nc1ccc([N+](=O)[O-])cc1N=C/C=C/c1ccccc1 | 5430 | > 100 |
| COc1cc(-c2oc(=O)ccc2C#Cc2ccccn2)cc(OC)c1OC | 646 | > 100 |
| COc1cccc(C2CC(C)(O)Oc3cc4c(cc32)OCO4)c1O (stereo not given) | – | > 53.6 |
| CNCc1ccccc1-c1csc([C@@H](C)Nc2nc(C)nc3cc(OC)c(OC)cc23)c1 | 168 | 1.57 |
| Cn1cc(C2=C(c3ccc(N)cc3)C(=O)NC2=O)c2ccccc21 | 9710 | > 25 |
| Cc1cc(Cl)cc(OCCn2cc(F)cn2)c1-c1nc(N)nc2c1CN(C(=O)NCC(C)(F)F)C2 | 51.9 | > 100 |
| COc1ccc(/C=C\[N+](=O)[O-])cc1OC | 2360 | > 100 |
| CCN(CC)CCC(CNc1ccnc2cc(Cl)ccc12)c1ccc(Cl)cc1 (stereo not given) | 312 | 1.16 |
| COc1cccc(F)c1C(=O)c1cnc(NC2CCN(S(C)(=O)=O)CC2)nc1N | 6550 | > 25 |
| CCOC(=O)C(C#N)C1=CC(=O)C(=O)c2ccc(OC)cc21 (stereo not given) | – | > 100 |
| COc1cc(OCc2cccc(-c3ccc(C(O)c4nccs4)cc3)c2C)cc(OC)c1C=O (stereo not given) | 1220 | 13.6 |
| COC(=O)c1ccc2c(c1)nc(NC(=O)c1ccccc1)n2CCCc1ccccc1 | 3260 | > 100 |

| SMILES | GI50 [nM] | TGI [µM] |
| --- | --- | --- |
| Cc1ccc(S(=O)(=O)Nc2ccccc2C=O)cc1 | – | 60.8 |
| O=C(O)COc1ccc2c(=O)c3sc4c(=O)c5ccccc5c(=O)c4c3c(=O)c2c1 | 25600 | 95.1 |
| O=C(Nc1ccc2ncccc2c1)Nc1ccc2ncccc2c1 | – | > 100 |
| CC1(C)S[C@@H]2[C@H](NC(=O)C3(N)CCCCC3)C(=O)N2[C@H]1C(=O)O | – | > 100 |
| NC(=O)/C=C/C(=O)c1c(Cl)cccc1Cl | 653 | 5.83 |
| CC1(C)N=C(N)N=C(N)N1c1ccc(CCCCc2ccc(Cl)cc2S(=O)(=O)F)c(Cl)c1 | 73 | 13.8 |
| O=C(Nc1ccc(Nc2ccncc2)cc1)c1ccc([N+](=O)[O-])cc1 | 3110 | > 28.2 |
| C(=NCCN1CCOCC1)=NC1CCCCC1 | – | > 100 |
| COc1ccccc1/C=N\N/C(N)=N\N=C\c1ccccc1OC | 263 | 1.7 |
| CC[As](CC)SC[C@H](C)C(=O)N1CCC[C@H]1C(=O)O | < 10 | 0.0615 |
| NC(N)=N/N=C/c1c(-c2ccsc2)nc2sccn12 | 13100 | 29.9 |
| Oc1ccc(Nc2ncnc3c2sc2ncccc23)cc1 | 360 | > 100 |
| COc1cccc(CC(C)=C(c2ccc(OCCN(C)C)cc2)c2ccc(OCCN(C)C)cc2)c1 | 614 | 1.77 |
| NC(=S)N/N=C/C(=O)O | 27000 | > 100 |
| Cc1ccc(SC2c3ccc(C)cc3Oc3nc(N)c(C#N)c(N)c32)cc1 (stereo not given) | 2790 | 12.4 |

System: MDA-MB-231 breast
Assay: growth of human tumour cells (NCI), 48 h

| SMILES | GI50 [nM] | TGI [µM] |
| --- | --- | --- |
| COc1ccc(Sc2[nH]c(C(C)=O)c3ccccc23)cc1 | 11400 | 29.5 |
| COc1ccc(OC)c2c1[nH]c(=O)c1c3ccccc3cn21 | 1400 | 2.86 |
| O=CCC1CCCCC1 | – | > 100 |
| CSc1nc(=O)n(CCC#N)nc1SC | – | > 100 |
| COc1cc(Nc2ncccc2C(=O)NCc2cn(Cc3cccc(Oc4ccccc4)c3)nn2)cc(OC)c1 | 5330 | > 100 |
| Nc1ccc([N+](=O)[O-])cc1N=C/C=C/c1ccccc1 | 7570 | > 100 |
| COc1cc(-c2oc(=O)ccc2C#Cc2ccccn2)cc(OC)c1OC | 3570 | > 72.4 |
| COc1cccc(C2CC(C)(O)Oc3cc4c(cc32)OCO4)c1O (stereo not given) | – | 67.7 |
| COC(=O)C1c2cc3c(cc2C(OC2OC(C)C(OC)C(C)(OC)C2OC)CC1(C)O)C(=O)c1c(O)cc2c(c1C3=O)OC1OC2(C)C(O)C([N+](C)(C)[O-])C1O (stereo not given) | – | 4.74 |
| CNCc1ccccc1-c1csc([C@@H](C)Nc2nc(C)nc3cc(OC)c(OC)cc23)c1 | 1850 | 3.78 |
| Cn1cc(C2=C(c3ccc(N)cc3)C(=O)NC2=O)c2ccccc21 | > 23000 | > 25 |
| Cc1cc(Cl)cc(OCCn2cc(F)cn2)c1-c1nc(N)nc2c1CN(C(=O)NCC(C)(F)F)C2 | 257 | > 100 |
| COc1ccc(/C=C\[N+](=O)[O-])cc1OC | 3730 | 13.1 |
| CCN(CC)CCC(CNc1ccnc2cc(Cl)ccc12)c1ccc(Cl)cc1 (stereo not given) | 1280 | 3.21 |
| COc1cccc(F)c1C(=O)c1cnc(NC2CCN(S(C)(=O)=O)CC2)nc1N | 2740 | > 22.1 |
| CCOC(=O)C(C#N)C1=CC(=O)C(=O)c2ccc(OC)cc21 (stereo not given) | – | 29.1 |
| COc1cc(OCc2cccc(-c3ccc(C(O)c4nccs4)cc3)c2C)cc(OC)c1C=O (stereo not given) | 2200 | 7.32 |

| SMILES | GI50 [nM] | TGI [µM] |
| --- | --- | --- |
| COC(=O)c1ccc2c(c1)nc(NC(=O)c1ccccc1)n2CCCc1ccccc1 | 6260 | > 100 |
| Cc1ccc(S(=O)(=O)Nc2ccccc2C=O)cc1 | – | 41 |
| O=C(O)COc1ccc2c(=O)c3sc4c(=O)c5ccccc5c(=O)c4c3c(=O)c2c1 | 17800 | 71.7 |
| O=C(Nc1ccc2ncccc2c1)Nc1ccc2ncccc2c1 | – | > 100 |
| CC1(C)S[C@@H]2[C@H](NC(=O)C3(N)CCCCC3)C(=O)N2[C@H]1C(=O)O | – | > 100 |
| NC(=O)/C=C/C(=O)c1c(Cl)cccc1Cl | 1230 | 2.47 |
| CC1(C)N=C(N)N=C(N)N1c1ccc(CCCCc2ccc(Cl)cc2S(=O)(=O)F)c(Cl)c1 | 993 | 11.4 |
| O=C(Nc1ccc(Nc2ccncc2)cc1)c1ccc([N+](=O)[O-])cc1 | 3440 | 14.9 |
| C(=NCCN1CCOCC1)=NC1CCCCC1 | – | > 100 |
| COc1ccccc1/C=N\N/C(N)=N\N=C\c1ccccc1OC | 2580 | > 60.3 |
| CC[As](CC)SC[C@H](C)C(=O)N1CCC[C@H]1C(=O)O | 68.6 | 0.301 |
| NC(N)=N/N=C/c1c(-c2ccsc2)nc2sccn12 | 16600 | 30.9 |
| Oc1ccc(Nc2ncnc3c2sc2ncccc23)cc1 | > 100000 | > 100 |
| COc1cccc(CC(C)=C(c2ccc(OCCN(C)C)cc2)c2ccc(OCCN(C)C)cc2)c1 | 1100 | 4.69 |
| NC(=S)N/N=C/C(=O)O | 81600 | > 100 |
| Cc1ccc(SC2c3ccc(C)cc3Oc3nc(N)c(C#N)c(N)c32)cc1 (stereo not given) | 1670 | 3.29 |

System: PC-3 prostate
Assay: growth of human tumour cells (NCI), 48 h

| SMILES | GI50 [µM] | TGI [µM] |
| --- | --- | --- |
| COc1ccc(Sc2[nH]c(C(C)=O)c3ccccc23)cc1 | 11.1 | 28.4 |
| COc1ccc(OC)c2c1[nH]c(=O)c1c3ccccc3cn21 | 1.39 | 4.21 |

Reference: PubChem BioAssay (NCI)
